ChEMBL document CHEMBL1201862, “PubChem BioAssay data set” (2004)
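In this assay, cells in 96-well plates receive the compound at five concentrations for 48 hours. Endpoints are linearly interpolated between the surrounding concentrations. GI50: concentration for 50% inhibition of growth.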 Activity calls are given as the source filed them. No stated cut-off is given here; in the data, active = GI50 up to about 1.1 µM and inactive = higher.

How the values were obtained:
Assay in all cases: growth of human tumour cells (NCI), 48 h
786-0 = tested on: 786-0
HCT-15 = tested on: HCT-15
SF-295 = tested on: SF-295
SNB-75 = tested on: SNB-75
HCT-116 = tested on: HCT-116
CCRF-CEM = tested on: CCRF-CEM
SK-MEL-28 = tested on: SK-MEL-28
Malme-3M = tested on: Malme-3M
OVCAR-5 = tested on: OVCAR-5
IGROV-1 = tested on: IGROV-1
NCI-H460 = tested on: NCI-H460
HL-60 = tested on: HL-60
OVCAR-3 = tested on: OVCAR-3
DMS-114 = tested on: DMS-114
K562 = tested on: K562
HT-29 = tested on: HT-29
SNB-19 = tested on: SNB-19
MDA-N = tested on: MDA-N
BT-549 = tested on: BT-549
MDA-MB-435 = tested on: MDA-MB-435

`Cc1cc2c(cc1C)[n+]([O-])c(C(=O)C/C(=N/NC(=S)NN)C(=O)Nc1cccc(C(F)(F)F)c1)c[n+]2[O-]` was tested, and the GI50 (786-0) was > 100 µM (inactive), the GI50 (HCT-15) was > 100 µM and the GI50 (SF-295) was > 100 µM (inactive). For the same molecule, the GI50 (SNB-75) was > 100 µM (inactive), the GI50 (HCT-116) was > 100 µM (inactive) and the GI50 (CCRF-CEM) was 56.9 µM (inactive). The GI50 (SK-MEL-28) was > 100 µM (inactive), the GI50 (Malme-3M) was > 100 µM (inactive) and the GI50 (OVCAR-5) was > 100 µM (inactive). For the same molecule, the GI50 (IGROV-1) was > 100 µM (inactive), the GI50 (NCI-H460) was > 100 µM (inactive) and the GI50 (HL-60) was > 100 µM (inactive). For the same molecule, the GI50 (OVCAR-3) was > 100 µM (inactive), the GI50 (DMS-114) was > 100 µM (inactive) and the GI50 (K562) was > 100 µM (inactive). The GI50 (HT-29) was > 100 µM (inactive) and the GI50 (SNB-19) was 34 µM (inactive).

`O=C1C2C=CC(n3[nH]c(=O)n(Cc4ccccc4)c3=O)CC2C(=O)N1c1cccc(Cl)c1` (stereo not given) was tested, and the GI50 (786-0) was > 100 µM (inactive), the GI50 (HCT-15) was > 100 µM and the GI50 (SF-295) was > 100 µM (inactive). For the same molecule, the GI50 (SNB-75) was > 100 µM (inactive), the GI50 (HCT-116) was > 100 µM (inactive) and the GI50 (CCRF-CEM) was > 100 µM (inactive). The GI50 (SK-MEL-28) was > 100 µM (inactive), the GI50 (Malme-3M) was > 100 µM (inactive) and the GI50 (OVCAR-5) was > 100 µM (inactive). The GI50 (IGROV-1) was > 100 µM (inactive), the GI50 (NCI-H460) was > 100 µM (inactive) and the GI50 (HL-60) was > 100 µM (inactive). The GI50 (OVCAR-3) was > 100 µM (inactive), the GI50 (DMS-114) was > 100 µM (inactive) and the GI50 (K562) was > 100 µM (inactive). The GI50 (HT-29) was > 100 µM (inactive) and the GI50 (SNB-19) was > 100 µM (inactive).

In the case of `N#Cc1cc([N+](=O)[O-])ccc1NC(=O)/C(=N\NC(=O)c1ccncc1)C(c1cnc2ccc([N+](=O)[O-])cc2n1)[N+](=O)[O-]` (stereo not given), the GI50 (786-0) is reported as 2.44 µM (inactive), the GI50 (HCT-15) is reported as 2.03 µM and the GI50 (SF-295) is reported as 1.78 µM (inactive). For the same molecule, the GI50 (SNB-75) was 1.99 µM (inactive), the GI50 (HCT-116) was 2.43 µM (inactive) and the GI50 (CCRF-CEM) was 3.38 µM (inactive). For the same molecule, the GI50 (MDA-N) was 512 nM (active), the GI50 (SK-MEL-28) was 2.17 µM (inactive) and the GI50 (BT-549) was 1.85 µM (inactive). For the same molecule, the GI50 (MDA-MB-435) was 1.03 µM (active), the GI50 (Malme-3M) was 1.31 µM (inactive) and the GI50 (OVCAR-5) was 9.4 µM (inactive). The GI50 (IGROV-1) was 3.78 µM (inactive), the GI50 (NCI-H460) was 2.13 µM (inactive) and the GI50 (HL-60) was 3.51 µM (inactive). The GI50 (OVCAR-3) was 1.64 µM (inactive), the GI50 (DMS-114) was 1.6 µM (inactive) and the GI50 (K562) was 2.02 µM (inactive). For the same molecule, the GI50 (HT-29) was 19.2 µM (inactive) and the GI50 (SNB-19) was 2.83 µM (inactive).

In the case of `Clc1ccccc1C1N2CCCCC2[C@@H]2c3[nH]c4ccccc4c3CCN12` (stereo not given in full), the GI50 (786-0) is reported as 21.2 µM (inactive), the GI50 (HCT-15) is reported as 16.2 µM and the GI50 (SF-295) is reported as 25.4 µM (inactive). For the same molecule, the GI50 (SNB-75) was 32.4 µM (inactive), the GI50 (HCT-116) was 18.5 µM (inactive) and the GI50 (CCRF-CEM) was 19.1 µM (inactive). For the same molecule, the GI50 (SK-MEL-28) was 18.5 µM (inactive), the GI50 (Malme-3M) was 4.84 µM (inactive) and the GI50 (OVCAR-5) was 20.9 µM (inactive). For the same molecule, the GI50 (IGROV-1) was 35.1 µM (inactive), the GI50 (NCI-H460) was 19.4 µM (inactive) and the GI50 (HL-60) was 19.5 µM (inactive). The GI50 (OVCAR-3) was 16.2 µM (inactive), the GI50 (DMS-114) was 20 µM (inactive) and the GI50 (K562) was 14.3 µM (inactive). For the same molecule, the GI50 (HT-29) was 17.1 µM (inactive) and the GI50 (SNB-19) was 23 µM (inactive).

In the case of `O=c1cc(-c2ccccc2F)[nH]c2cc3c(cc12)OCO3`, the GI50 (786-0) is reported as 0.182 µM (active), the GI50 (HCT-15) is reported as 0.0417 µM and the GI50 (SF-295) is reported as 0.0993 µM (active). The GI50 (SNB-75) was 0.247 µM (active), the GI50 (HCT-116) was 0.0489 µM (active) and the GI50 (CCRF-CEM) was 0.129 µM (active). The GI50 (MDA-N) was < 10 nM (active), the GI50 (SK-MEL-28) was > 32.9 µM (inactive) and the GI50 (MDA-MB-435) was < 0.01 µM (active). For the same molecule, the GI50 (Malme-3M) was 0.053 µM (active), the GI50 (OVCAR-5) was 1.31 µM (inactive) and the GI50 (IGROV-1) was 0.118 µM (active). For the same molecule, the GI50 (NCI-H460) was 0.107 µM (active), the GI50 (HL-60) was 0.0454 µM (active) and the GI50 (OVCAR-3) was 0.0341 µM (active). The GI50 (DMS-114) was 0.508 µM (active), the GI50 (K562) was 0.0628 µM (active) and the GI50 (HT-29) was 0.0942 µM (active). The GI50 (SNB-19) was 0.202 µM (active).
